{"source": "patent US7999128B2", "about": "“Hydroxybenzophenone derivatives” (BASF SE, priority 2006, dated 2011)", "key": {"[1]": {"test": "UV absorption (λmax, E 1/1)", "format": "physicochemical", "details": "for E 1/1: at λmax"}, "[2]": {"test": "Solubility in Cyclomethicone", "format": "physicochemical", "details": "at RT"}}, "data": [{"smiles": "CCN(CC)c1ccc(C(=O)c2ccccc2C(=O)OCCC[Si](C)(C)C)c(O)c1", "note": "[Example A1]", "values": [{"measurement": "λmax", "setting": "[1]", "value": 350, "unit": "nm"}, {"measurement": "E 1/1", "setting": "[1]", "value": 822}, {"measurement": "solubility in Cyclomethicone", "setting": "[2]", "value": 1.8, "unit": "%"}]}, {"smiles": "CCN(CC)c1ccc(C(=O)c2ccccc2C(=O)OCCOC(=O)C(C)C[Si](C)(O[Si](C)(C)C)O[Si](C)(C)C)c(O)c1", "note": "(centres unmarked) [Example A2]", "values": [{"measurement": "λmax", "setting": "[1]", "value": 350, "unit": "nm"}, {"measurement": "E 1/1", "setting": "[1]", "value": 571}, {"measurement": "solubility in Cyclomethicone", "setting": "[2]", "value": "> 20", "unit": "%"}]}, {"smiles": "CCN(CC)c1ccc(C(=O)c2ccccc2C(=O)OCCOC(=O)C(C)C[Si](C)(O[Si](C)(C)C)O[Si](C)(C)C)c(O)c1", "note": "(centres unmarked) [Example A3]", "values": [{"measurement": "λmax", "setting": "[1]", "value": 357, "unit": "nm"}, {"measurement": "E 1/1", "setting": "[1]", "value": 606}]}]}
